Measured values reported in patent publication US10071964B2, “Disubstituted piperidines as butyrylcholinesterase inhibitors” (priority 2015, dated 2018).

Key:
[1] = biological target: T1, murine acetylcholinesterase (mAChE) (Mus musculus, UniProt P21836); assay: Ellman's method enzyme assay, mAChE inhibition; format: biochemical; conditions: for % inhibition at 10 μM mAChE: 10 μM compound, n.i. = no inhibition
T1 sequence (P21836 32-614): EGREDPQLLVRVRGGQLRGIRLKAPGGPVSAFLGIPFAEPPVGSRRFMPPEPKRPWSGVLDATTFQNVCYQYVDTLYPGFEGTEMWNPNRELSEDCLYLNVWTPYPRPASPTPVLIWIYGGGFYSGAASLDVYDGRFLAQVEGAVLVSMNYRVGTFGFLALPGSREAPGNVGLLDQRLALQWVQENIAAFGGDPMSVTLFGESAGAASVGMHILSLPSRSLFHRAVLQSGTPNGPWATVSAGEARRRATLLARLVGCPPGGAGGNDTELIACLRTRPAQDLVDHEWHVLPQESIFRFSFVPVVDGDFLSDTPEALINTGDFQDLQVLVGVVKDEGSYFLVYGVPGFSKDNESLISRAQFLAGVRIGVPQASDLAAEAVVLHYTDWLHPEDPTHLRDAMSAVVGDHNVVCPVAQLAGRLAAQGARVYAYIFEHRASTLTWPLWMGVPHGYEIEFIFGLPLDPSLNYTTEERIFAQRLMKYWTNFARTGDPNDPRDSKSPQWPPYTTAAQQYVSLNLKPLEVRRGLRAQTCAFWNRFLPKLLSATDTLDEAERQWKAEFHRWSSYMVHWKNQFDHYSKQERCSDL
Source text: (§1) Ellman's method was used to evaluate the inhibitory activities of the synthesized compounds against the cholinesterases. […] As a substrate butyrylthiocholine (BTC) and acetylthiocholine (ATC) iodides were used for BChE and AChE, respectively. […] For the reference sample, 1% dimethylsulfoxide (DMSO) replaced the inhibitor's solution.
(§2) Potency of the inhibitor is expressed as a residual activity (RA) of the enzyme at the employed inhibitor's concentration, half maximal inhibitory concentration (IC50 value) and as an inhibition constant (Ki).
(§3) The enzyme reactions were carried out using murine acetylcholinesterase (mAChE) and human recombinant butyrylcholinesterase (huBChE). From the lyophilised powders of both enzymes, the solutions were obtained by dissolution of the powders in 10 mM MES buffer (pH 6.5) to reach the concentration of 4 mg/mL. The concentrated enzyme solution was diluted prior use in 100 mM phosphate buffer (pH 8.0) to reach the activity of the enzyme in the assay of approximately 500 mAu per minute.
(§4) ATCI in BTCI solutions were prepared in 100 mM phosphate buffer (pH 8.0) to reach the final concentration in the assay of 500 μM.
Stock solutions of compounds were prepared in DMSO in a concentration of 10 mM.
(§5) Enzyme solutions were prepared by dilution of the concentrated stocks in the 100 mM phosphate buffer (pH 8.0). […] Enzyme reaction was started with the addition of the substrate. The DMSO concentration in the test solution was always 1%. […] For the determination of blank (b) the phosphate buffer replaced the enzyme solution. Initial velocity of the enzyme reaction (v0) was determined from the linear curve of the enzyme reaction product formation, where each measurement was performed in triplicate. For the initial screening of inhibition ability, […] concentration of the investigated compounds was used. Compounds were pipetted in the corresponding wells to reach the final concentration of 10 μM. Tested compound and the enzyme solution were first preincubated for 300s, followed by the substrate addition, which triggered the enzyme reaction. The initial velocity in presence of the inhibitor was further calculated (vi). The inhibition capability was expressed as residual activity (RA=(vi−b)/(vo−b)).
(§6) IC50 values were determined by plotting the RA versus the concentration of the investigated compound.
(§7) Where X is a common logarithm of the concentration of the inhibitor and Y is the residual activity. For solving the equation Gnuplot software and an in-house python script were used. For the determination of the inhibition constant full progress curves of the product formation in presence and absence of investigated compounds were monitored. The curves were submitted in the ENZO web-application, which allows solving of numerical equations.

[2] = biological target: human recombinant butyrylcholinesterase (huBChE) (Homo sapiens, UniProt P06276); assay: biochemical; conditions: read-out: IC50 ± STD (μM) huBChE
Source text: as §1, §2, §3, §4, §5, §6, §7

human recombinant butyrylcholinesterase (huBChE), sequence (P06276 29-602): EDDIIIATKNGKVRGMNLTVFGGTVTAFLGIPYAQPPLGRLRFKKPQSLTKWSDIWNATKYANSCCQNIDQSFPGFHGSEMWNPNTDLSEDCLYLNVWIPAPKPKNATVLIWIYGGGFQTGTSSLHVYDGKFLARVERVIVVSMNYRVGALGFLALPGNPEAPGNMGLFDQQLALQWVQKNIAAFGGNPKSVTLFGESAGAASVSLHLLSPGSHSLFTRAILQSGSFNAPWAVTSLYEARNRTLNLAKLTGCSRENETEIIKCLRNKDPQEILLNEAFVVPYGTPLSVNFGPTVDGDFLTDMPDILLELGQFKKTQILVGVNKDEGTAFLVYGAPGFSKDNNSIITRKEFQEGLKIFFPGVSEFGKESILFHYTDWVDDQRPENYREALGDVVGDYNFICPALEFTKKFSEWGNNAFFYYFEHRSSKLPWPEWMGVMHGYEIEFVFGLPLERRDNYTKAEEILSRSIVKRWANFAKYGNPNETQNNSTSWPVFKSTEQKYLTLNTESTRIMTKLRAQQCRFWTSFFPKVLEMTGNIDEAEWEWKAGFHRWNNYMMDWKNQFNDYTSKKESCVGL

| Structure (SMILES) | inhibition at 10 µM ([1]; read-out: % inhibition ± STD at 10 μM inhibitor mAChE, Table 1, formula (I), 10 μM inhibitor) [%] | % inhibition at 10 μM mAChE ([1]; Table 2, formula (II)) | IC50 [2] [µM] | IC50 ([1]; Table 2, formula (II), substrate ATCI 500 μM, read-out: IC50 ± STD (μM) mAChE) [µM] |
| --- | --- | --- | --- | --- |
| CN(C)CCN(CC1CCCN(C2Cc3ccccc3C2)C1)C(=O)c1ccc2ccccc2c1 (stereo not drawn) | 17.4 ± 3.7 |  |  |  |
| COCCN(CC1CCCN(C2Cc3ccccc3C2)C1)S(=O)(=O)c1ccc2ccccc2c1 (stereo not drawn) |  | 72 ± 0.86% |  |  |
| COCCN(CC1CCCN(C2Cc3ccccc3C2)C1)S(=O)(=O)c1ccccc1 (stereo not drawn) |  | n.i. | 0.343 ± 0.005 |  |
| COCCN(CC1CCCN(C2Cc3ccccc3C2)C1)S(=O)(=O)c1ccc(C)cc1 (stereo not drawn) |  | n.i. | 0.279 ± 0.008 |  |
| COCCN(CC1CCCN(C2Cc3ccccc3C2)C1)S(=O)(=O)c1ccc(F)cc1 (stereo not drawn) |  | n.i. | 0.887 ± 0.08 |  |
| COCCN(CC1CCCN(C2Cc3ccccc3C2)C1)S(=O)(=O)c1ccc(OC)cc1 (stereo not drawn) |  | n.i. | 0.482 ± 0.066 |  |
| COCCN(CC1CCCN(C2Cc3ccccc3C2)C1)S(=O)(=O)c1ccc([N+](=O)[O-])cc1 (stereo not drawn) |  | n.i. | 3.47 ± 0.052 |  |
| COCCN(CC1CCCN(C2Cc3ccccc3C2)C1)S(=O)(=O)c1ccc(N)cc1 (stereo not drawn) |  | n.i. | 0.314 ± 0.036 |  |
| COCCN(CC1CCCN(C2Cc3ccccc3C2)C1)S(=O)(=O)c1ccc(NC(C)=O)cc1 (stereo not drawn) |  | n.i. | 0.321 ± 0.035 |  |
| COCCN(CC1CCCN(C2Cc3ccccc3C2)C1)S(=O)(=O)c1cccc([N+](=O)[O-])c1 (stereo not drawn) |  |  | 3.61 ± 0.528 |  |
| COCCN(CC1CCCN(C2Cc3ccccc3C2)C1)S(=O)(=O)c1cccc(N)c1 (stereo not drawn) |  | n.i. |  |  |
| COCCN(CC1CCCN(C2Cc3ccccc3C2)C1)S(=O)(=O)c1cccc(NC(C)=O)c1 (stereo not drawn) |  | n.i. | 8.21 ± 0.601 |  |
| COCCN(CC1CCCN(C2Cc3ccccc3C2)C1)S(=O)(=O)c1ccccc1C(=O)OC (stereo not drawn) |  | n.i. | 0.359 ± 0.018 |  |
| CNC(=O)c1ccccc1S(=O)(=O)N(CCOC)CC1CCCN(C2Cc3ccccc3C2)C1 (stereo not drawn) |  | n.i. | 3.23 ± 0.492 |  |
| COCCN(CC1CCCN(Cc2ccccc2)C1)S(=O)(=O)c1ccc2ccccc2c1 (stereo not drawn) |  | n.i. |  |  |
| COCCN(CC1CCCN(Cc2ccc(F)cc2)C1)S(=O)(=O)c1ccc2ccccc2c1 (stereo not drawn) |  | n.i. | 0.231 ± 0.006 |  |
| COCCN(CC1CCCN(Cc2cccc(F)c2)C1)S(=O)(=O)c1ccc2ccccc2c1 (stereo not drawn) |  | n.i. | 0.0491 ± 0.0012 |  |
| COCCN(CC1CCCN(Cc2ccc(C#N)cc2)C1)S(=O)(=O)c1ccc2ccccc2c1 (stereo not drawn) |  | n.i. | 1.46 ± 0.115 |  |
| COCCN(CC1CCCN(Cc2cccc(C#N)c2)C1)S(=O)(=O)c1ccc2ccccc2c1 (stereo not drawn) |  | n.i. | 0.338 ± 0.008 |  |
| COCCN(CC1CCCN(Cc2ccc(N(C)C)cc2)C1)S(=O)(=O)c1ccc2ccccc2c1 (stereo not drawn) |  | n.i. | 0.311 ± 0.022 |  |
| O=S(=O)(NCC1CCCN(Cc2ccccc2)C1)c1ccc2ccccc2c1 (stereo not drawn) |  | n.i. |  |  |

| Structure (SMILES) | inhibition at 10 µM ([1]; read-out: % inhibition ± STD at 10 μM inhibitor mAChE, Table 1, formula (I), 10 μM inhibitor) [%] | % inhibition at 10 μM mAChE ([1]; Table 2, formula (II)) | IC50 [2] [µM] | IC50 ([1]; Table 2, formula (II), substrate ATCI 500 μM, read-out: IC50 ± STD (μM) mAChE) [µM] |
| --- | --- | --- | --- | --- |
| CN(CC1CCCN(Cc2ccccc2)C1)S(=O)(=O)c1ccc2ccccc2c1 (stereo not drawn) |  | n.i. |  |  |
| CCN(CC1CCCN(Cc2ccccc2)C1)S(=O)(=O)c1ccc2ccccc2c1 (stereo not drawn) |  | n.i. | 0.038 ± 0.0026 |  |
| CCCN(CC1CCCN(Cc2ccccc2)C1)S(=O)(=O)c1ccc2ccccc2c1 (stereo not drawn) |  | n.i. | 0.0428 ± 0.0064 |  |
| CCCCN(CC1CCCN(Cc2ccccc2)C1)S(=O)(=O)c1ccc2ccccc2c1 (stereo not drawn) |  | n.i. | 0.0355 ± 0.0044 |  |
| COCCCN(CC1CCCN(Cc2ccccc2)C1)S(=O)(=O)c1ccc2ccccc2c1 (stereo not drawn) |  | n.i. |  |  |
| COCCN(CC1CCN(Cc2ccccc2)CC1)S(=O)(=O)c1ccc2ccccc2c1 |  | n.i. |  |  |
| COCCCN(CC1CCN(Cc2ccccc2)CC1)S(=O)(=O)c1ccc2ccccc2c1 |  | n.i. |  |  |
| O=S(=O)(NCC1CCN(Cc2ccccc2)CC1)c1ccc2ccccc2c1 |  |  |  | 1.78 ± 0.085 |
| COCCN(CC1CCN(C2Cc3ccccc3C2)CC1)S(=O)(=O)c1ccc2ccccc2c1 |  | n.i. |  |  |
| COCCCN(CC1CCN(C2Cc3ccccc3C2)CC1)S(=O)(=O)c1ccc2ccccc2c1 |  | n.i. |  |  |
| Cc1cccc(CN2CCCC(CNS(=O)(=O)c3ccc4ccccc4c3)C2)c1 (stereo not drawn) |  | 57 ± 3.55% | 0.287 ± 0.022 |  |
| O=S(=O)(NCC1CCCN(Cc2ccc(F)cc2)C1)c1ccc2ccccc2c1 (stereo not drawn) |  | 75 ± 4.19% | 0.583 ± 0.043 |  |
| Cc1nc(CN2CCCC(CNS(=O)(=O)c3ccc4ccccc4c3)C2)cs1 (stereo not drawn) |  | 71 ± 3.68% | 0.366 ± 0.031 |  |
| O=S(=O)(NCC1CCCN(Cc2ccc(F)cc2Cl)C1)c1ccc2ccccc2c1 (stereo not drawn) |  | 73 ± 3.60% | 0.347 ± 0.06 |  |
| O=S(=O)(NCC1CCCN(Cc2ccncc2)C1)c1ccc2ccccc2c1 (stereo not drawn) |  | n.i. | 1.67 ± 0.256 |  |
| N#Cc1ccc(CN2CCCC(CNS(=O)(=O)c3ccc4ccccc4c3)C2)cc1 (stereo not drawn) |  | n.i. | 2.09 ± 0.328 |  |
| CN(CC1CCCN(Cc2ccc(F)cc2)C1)S(=O)(=O)c1ccc2ccccc2c1 (stereo not drawn) |  | n.i. | 0.427 ± 0.044 |  |
| COCCN(CC1CCCN(Cc2ccccc2)C1)S(=O)(=O)c1cccc2ccccc12 (stereo not drawn) |  | n.i. | 0.059 ± 0.0054 |  |
| COCCN(CC1CCCN(Cc2ccccc2)C1)S(=O)(=O)c1ccc2ccc(OC)cc2c1 (stereo not drawn) |  | n.i. | 0.156 ± 0.033 |  |
| COCCCN(CC1CCCN(Cc2ccccc2)C1)S(=O)(=O)c1ccc2ccc(OCC#N)cc2c1 (stereo not drawn) |  | n.i. | 0.113 ± 0.008 |  |
